Converted amounts (≈) assume the structure as drawn. Like-named read-outs stand apart in the source and are kept apart here. Where a SMILES comes first, the peptide text is derived from it. [ ]: non-standard residue; d: D form. The star is where a group is joined. ξ: configuration not given here. Biotin = O=C1N[C@H]2[C@H](CS[C@H]2CCCCC(=O)*)N1; Oic = O=C(O)[C@@H]1C[C@@H]2CCCC[C@@H]2N1; Tic = O=C(O)[C@@H]1Cc2ccccc2CN1; ξTic = O=C(O)C1Cc2ccccc2CN1; ξOic = O=C(O)C1CC2CCCCC2N1; Orn = NCCC[C@H](N)C(=O)O; NH(CH2)3NH2 = NCCCN*
Tests used:
[1] = system: Salmonella typhimurium (ATCC 13311); settings: for p(MIC) Salmonella typhimurium: -log(MIC); for MIC Salmonella typhimurium: ATCC 13311; for Minimum Inhibitory Concentration Salmonella typhimurium: in vitro MIC
[2] = system: red blood cells
[3] = system: Mycobacterium ranae (ATCC 110)
[4] = system: Bacillus subtillis (ATCC 43223); settings: for p(MIC) Bacillus Subtillis: -log(MIC); for MIC Bacillus Subtillis: ATCC 43223
[5] = system: Staphylococcus aureus Methicillin/Gentamicin/Tetracycline Resistant (ATCC 33592); settings: for p(MIC) Staphylococcus aureus ME/GM/TC resistant: -log(MIC); for Actual Bioactivity: p(MIC) used in Staphylococcus aureus QSAR model; for Minimum Inhibitory Concentration Staphylococcus aureus ME/GM/TC resistant: in vitro MIC, tested at 100, 30, 10, 3, 1, 0.3 and 0.1 μM in 1% DMSO; for MIC Staphylococcus aureus ME/GM/TC resistant: Minimal Inhibitory Concentration, tested at 100-0.1 in 1% DMSO
[6] = in vitro; settings: dog, microsomes, pH 7.4
[7] = in vitro; settings: mouse, microsomes, pH 7.4
[8] = in vitro; settings: rat, microsomes, pH 7.4
[9] = in vitro; settings: monkey, microsomes, pH 7.4

Compound | p(MIC) Salmonella typhimurium [1] | MIC Salmonella typhimurium [1] [µM] | % hemolysis 100/25 μM (first value) [2] [%/] | % hemolysis 100/25 μM (second value) [2] [%] | Actual Bioactivity [3] | Minimum Inhibitory Concentration Mycobacterium ranae [3] | MIC Mycobacterium ranae ([3]; ATCC 110) [µM] | p(MIC) Bacillus Subtillis [4] | MIC Bacillus Subtillis [4] [µM] | p(MIC) Staphylococcus aureus ME/GM/TC resistant [5] | Actual Bioactivity [5] | Minimum Inhibitory Concentration Mycobacterium ranae ([3]; ATCC 110) [µM] | Minimum Inhibitory Concentration Staphylococcus aureus ME/GM/TC resistant [5] [µM] | MIC Staphylococcus aureus ME/GM/TC resistant [5] [µM] | further results
CC(=O)NCC(=O)N[C@@H](Cc1ccccc1)C(=O)N1[C@H](C(=O)NCC(=O)N[C@@H](CCCCN)C(=O)N2[C@H](C(=O)NCC(=O)N[C@@H](Cc3ccccc3)C(=O)N3[C@H](C(=O)NCC(=O)N[C@@H](CCCCN)C(=O)N[C@@H](CCCCN)C(=O)N[C@@H](CCCCN)C(=O)N[C@@H](CCCCN)C(=O)N[C@@H](CCCCN)C(N)=O)C[C@@H]4CCCC[C@@H]43)C[C@@H]3CCCC[C@@H]32)C[C@@H]2CCCC[C@@H]21 [FKAB-1Gf, Ac-GF-Oic-GK-Oic-GF-Oic-GKKKKK-CONH2] (Ac-GF[Oic]GK[Oic]GF[Oic]GKKKKK-NH2) | 4.00 | 100 (≈ 180 µg/mL) | 5.9 | 3.2 | 4.000 | 100 μM/180 μg/mL | 100.00 (≈ 180 µg/mL) | 5.52 | 3.00 (≈ 5.41 µg/mL) | 0.00 | 0.000 | – | – | – | Minimum Inhibitory Concentration Salmonella typhimurium [1]: 180 µg/mL; Minimum Inhibitory Concentration Salmonella typhimurium ([1]; tested at 100, 30, 10, 3, 1, 0.3 and 0.1 μM in 1% DMSO): 100 µM; % hemolysis 100/25 μM (first value) ([2]; 100 μM): 5.9%; Minimum Inhibitory Concentration Bacillus subtillis ([4]; in vitro MIC): 5.4 µg/mL
NCCCC[C@H](NC(=O)[C@H](CCCCN)NC(=O)[C@H](CCCCN)NC(=O)[C@H](CCCCN)NC(=O)C1Cc2ccccc2CN1C(=O)[C@H](CCCCN)NC(=O)CNC(=O)C1CC2CCCCC2N1C(=O)C1Cc2ccccc2CN1C(=O)[C@H](Cc1ccccc1)NC(=O)CNC(=O)C1CC2CCCCC2N1C(=O)C1Cc2ccccc2CN1C(=O)[C@H](CCCCN)NC(=O)CNC(=O)C1CC2CCCCC2N1C(=O)C1Cc2ccccc2CN1C(=O)[C@H](Cc1ccccc1)NC(=O)CNC(=O)CCCC[C@@H]1SC[C@@H]2NC(=O)N[C@@H]21)C(N)=O (stereo partly drawn) [FKAB-1Gl, Biotin-GF-Tic-Oic-GK-Tic-Oic-GF-Tic-Oic-GK-Tic-KKKK-CONH2] (Biotin-GF[ξTic][ξOic]GK[ξTic][ξOic]GF[ξTic][ξOic]GK[ξTic]KKKK-NH2) | – | – | – | – | – | – | – | – | – | – | – | 10 | 3 | – | remaining at 0.5 h, 1 μM [6]: 84%; remaining at 1 h, 1 μM [6]: 80%; remaining at 0.25 h, 1 μM [7]: 96%; remaining at 0.5 h, 1 μM [7]: 87%; remaining at 1 h, 1 μM [7]: 78%; remaining at 0.25 h, 1 μM [8]: 73%; remaining at 0.5 h, 1 μM [8]: 83%; remaining at 1 h, 1 μM [8]: 105%; remaining at 0.25 h, 1 μM [9]: 80%; remaining at 0.5 h, 1 μM [9]: 77%; remaining at 1 h, 1 μM [9]: 77%
CC(=O)N[C@@H](Cc1ccccc1)C(=O)N1Cc2ccccc2C[C@H]1C(=O)N1[C@H](C(=O)N[C@@H](CCCCN)C(=O)N2Cc3ccccc3C[C@H]2C(=O)N2[C@H](C(=O)N[C@@H](Cc3ccccc3)C(=O)N3Cc4ccccc4C[C@H]3C(=O)N3[C@H](C(=O)N[C@@H](CCCCN)C(=O)N4Cc5ccccc5C[C@H]4C(=O)N[C@@H](CCCCN)C(=O)N[C@@H](CCCCN)C(=O)N[C@@H](CCCCN)C(=O)N[C@@H](CCCCN)C(=O)N[C@@H](CCCCN)C(=O)N[C@@H](CCCCN)C(N)=O)C[C@@H]4CCCC[C@@H]43)C[C@@H]3CCCC[C@@H]32)C[C@@H]2CCCC[C@@H]21 [FKAB-1Gc1, Ac-F-Tic-Oic-K-Tic-Oic-F-Tic-Oic-K-Tic-KKKKKK-CONH2] (Ac-F[Tic][Oic]K[Tic][Oic]F[Tic][Oic]K[Tic]KKKKKK-NH2) | 5.00 | 10 (≈ 24.7 µg/mL) | 41.3 | 33.5 | 5.520 | 3 µM | 3.00 (≈ 7.41 µg/mL) | 6.00 | 1.00 (≈ 2.47 µg/mL) | 5.52 | 5.520 | – | 3 | 3.00 (≈ 7.41 µg/mL) | MR Activity [3]: 3 µM; SA Activity ([5]; Staphylococcus aureus (SA), Table 30): 3
NCCCC[C@H](NC(=O)[C@H](CCCCN)NC(=O)[C@H](CCCCN)NC(=O)[C@H](CCCCN)NC(=O)[C@@H]1Cc2ccccc2CN1C(=O)[C@H](CCCCN)NC(=O)CNC(=O)[C@@H]1C[C@@H]2CCCC[C@@H]2N1C(=O)[C@@H]1Cc2ccccc2CN1C(=O)[C@H](Cc1ccccc1)NC(=O)CNC(=O)[C@@H]1C[C@@H]2CCCC[C@@H]2N1C(=O)[C@@H]1Cc2ccccc2CN1C(=O)[C@H](CCCCN)NC(=O)CNC(=O)[C@@H]1C[C@@H]2CCCC[C@@H]2N1C(=O)[C@@H]1Cc2ccccc2CN1C(=O)[C@H](Cc1ccccc1)NC(=O)CN)C(N)=O [FKAB-1Ga, NH2--GF-Tic-Oic-GK-Tic-Oic-GF-Tic-Oic-GK-Tic-KKKK-CONH2] (H-GF[Tic][Oic]GK[Tic][Oic]GF[Tic][Oic]GK[Tic]KKKK-NH2) | 5.52 | 3 (≈ 7.2 µg/mL) | 33.4 | 14.3 | 5.000 | – | 10.00 (≈ 24 µg/mL) | 6.00 | 1.00 (≈ 2.4 µg/mL) | 5.00 | 5.000 | 10 | 10 | – | –
CC(=O)NCC(=O)N[C@@H](Cc1ccccc1)C(=O)N1Cc2ccccc2C[C@H]1C(=O)N1[C@H](C(=O)NCC(=O)N[C@@H](CCCCN)C(=O)N2Cc3ccccc3C[C@H]2C(=O)N2[C@H](C(=O)NCC(=O)N[C@@H](Cc3ccccc3)C(=O)N3Cc4ccccc4C[C@H]3C(=O)N3[C@H](C(=O)NCC(=O)N[C@@H](CCCCN)C(=O)N4Cc5ccccc5C[C@H]4C(=O)N[C@@H](CCCN)C(=O)N[C@@H](CCCN)C(=O)N[C@@H](CCCN)C(=O)N[C@@H](CCCN)C(N)=O)C[C@@H]4CCCC[C@@H]43)C[C@@H]3CCCC[C@@H]32)C[C@@H]2CCCC[C@@H]21 [FKAB-1Gj, Ac-GF-Tic-Oic-GK-Tic-Oic-GF-Tic-Oic-GK-Tic-Orn-Orn-Orn-Orn-CONH2] (Ac-GF[Tic][Oic]GK[Tic][Oic]GF[Tic][Oic]GK[Tic][Orn][Orn][Orn][Orn]-NH2) | 5.00 | 10 (≈ 23.8 µg/mL) | – | – | 5.000 | 10 µM | 10.00 (≈ 23.8 µg/mL) | 6.00 | 1.00 (≈ 2.38 µg/mL) | 5.00 | 5.000 | – | 10 | 10.00 (≈ 23.8 µg/mL) | –
CC(=O)NCC(=O)N[C@@H](Cc1ccccc1)C(=O)NCC(=O)N1C(C(=O)NCC(=O)N[C@@H](CCCCN)C(=O)NCC(=O)N2C(C(=O)NCC(=O)N[C@@H](Cc3ccccc3)C(=O)NCC(=O)N3C(C(=O)NCC(=O)N[C@@H](CCCCN)C(=O)NCC(=O)N[C@@H](CCCCN)C(=O)N[C@@H](CCCCN)C(=O)N[C@@H](CCCCN)C(=O)N[C@@H](CCCCN)C(N)=O)CC4CCCCC43)CC3CCCCC32)CC2CCCCC21 (some centres unmarked) [FKAB-1Gf1, Ac-GF-G-Oic-GK-G-Oic-GF-G-Oic-GK-G-KKKK-CONH2] (Ac-GFG[ξOic]GKG[ξOic]GFG[ξOic]GKGKKKK-NH2) | – | – | 3.30 | 3.3 | – | – | 100.00 (≈ 203 µg/mL) | – | 30.00 (≈ 61 µg/mL) | – | – | – | – | – | –
CC(=O)NCC(=O)N[C@@H](Cc1ccccc1)C(=O)N1Cc2ccccc2C[C@H]1C(=O)N1[C@H](C(=O)NCC(=O)N[C@@H](CCCCN)C(=O)N2Cc3ccccc3C[C@H]2C(=O)N2[C@H](C(=O)NCC(=O)N[C@@H](Cc3ccccc3)C(=O)N3Cc4ccccc4C[C@H]3C(=O)N3[C@H](C(=O)NCC(=O)N[C@@H](CCCCN)C(=O)N4Cc5ccccc5C[C@H]4C(=O)N[C@@H](CCCCN)C(=O)N[C@@H](CCCCN)C(=O)N[C@@H](CCCCN)C(=O)N[C@@H](CCCCN)C(=O)NCCCN)C[C@@H]4CCCC[C@@H]43)C[C@@H]3CCCC[C@@H]32)C[C@@H]2CCCC[C@@H]21 [FKAB-1L, Ac-GF-Tic-Oic-GK-Tic-Oic-GF-Tic-Oic-GK-Tic-KKKK-CONH—CH2—CH2—CH2—NH2] (Ac-GF[Tic][Oic]GK[Tic][Oic]GF[Tic][Oic]GK[Tic]KKKK-{NH(CH2)3NH2}) | 4.52 | 30 (≈ 74.9 µg/mL) | – | – | 5.000 | – | 10.00 (≈ 25 µg/mL) | 5.52 | 3.00 (≈ 7.49 µg/mL) | 5.00 | 5.000 | 10 | 10 | 10.00 (≈ 25 µg/mL) | –
CC(=O)NCC(=O)N[C@@H](Cc1ccccc1)C(=O)N1Cc2ccccc2CC1C(=O)NCC(=O)NCC(=O)N[C@@H](CCCCN)C(=O)N1Cc2ccccc2CC1C(=O)NCC(=O)NCC(=O)N[C@@H](Cc1ccccc1)C(=O)N1Cc2ccccc2CC1C(=O)NCC(=O)NCC(=O)N[C@@H](CCCCN)C(=O)N1Cc2ccccc2CC1C(=O)N[C@@H](CCCCN)C(=O)N[C@@H](CCCCN)C(=O)N[C@@H](CCCCN)C(=O)N[C@@H](CCCCN)C(N)=O (some centres unmarked) [FKAB-1Gg1, Ac-GF-Tic-G-GK-Tic-G-GF-Tic-G-GK-Tic-KKKK-CONH2] (Ac-GF[ξTic]GGK[ξTic]GGF[ξTic]GGK[ξTic]KKKK-NH2) | – | 100 (≈ 216 µg/mL) | 5.70 | 3.80 | – | – | 30.00 (≈ 64.8 µg/mL) | – | 10.00 (≈ 21.6 µg/mL) | – | – | – | – | – | –

Reference: patent US20120197004A1, “NOVEL ANTI-MICROBIAL PEPTIDOMIMETIC COMPOUNDS AND METHODS TO CALCULATE ANTI-MICROBIAL ACTIVITY” (priority 2006, published 2012)
